Like-named read-outs stand apart in the source and are kept apart here.
Test system: test plant species
Assay: Post-emergent herbicidal activity test (greenhouse, foliar spray, visual growth reduction)
Format: in vivo
Settings: post-emergence, 336 h, 140 g ai/ha
Description: Post-emergent Test: Seeds or nutlets of the desired test plant species were planted in Sun Gro Metro-Mix® 360 planting mixture, which typically has a pH of 6.0 to 6.8 and an organic matter content of about 30 percent, in plastic pots with a surface area of 64 square centimeters. In some aspects, to ensure good germination and healthy plants, a fungicide treatment and/or other chemical or physical treatment was applied. The plants were grown for 7-21 d in a greenhouse with an approximate 15 h photoperiod which was maintained at 23-29° C. during the day and 22-28° C. during the night. Nutrients and water were added on a regular basis and supplemental lighting was provided with overhead metal halide 1000-Watt lamps as necessary. Plants were used for testing when they reached the first or second true leaf stage. A weighed amount, determined by the highest rate to be tested, of each test compound was placed in a 25 mL glass vial and was dissolved in 4 mL of a 97:3 v/v mixture of acetone and DMSO to obtain concentrated stock solutions. […] The concentrated stock solutions obtained were diluted with 20 mL of an aqueous mixture containing acetone, water, isopropyl alcohol, DMSO, […] crop oil concentrate, and X-77 surfactant in a 48.5:39:10:1.5:1.0:0.02 v/v ratio to obtain spray solutions containing the application rate. Compound requirements are based upon a 12 mL application volume at a rate of 187 liters per hectare (L/ha). Formulated compounds were applied to the plant material with an overhead Mandel track sprayer equipped with […] nozzles calibrated to deliver 187 L/ha over an application area of 0.64 square meters at a spray height of 18 inches (43 cm) above the average plant canopy height. Control plants were sprayed in the same manner with the solvent blank. The treated plants and control plants were placed in a greenhouse as described above and watered by subirrigation to prevent wash-off of the test compounds. After 14 d, the condition of the test plants as compared with that of the nontreated and control plants was determined visually and scored on a scale of 0 to 100 percent where 0 corresponds to no injury and 100 corresponds to complete control. In the reporting of the results, Table A: Percent Growth Reduction Conversion Table was used.

[1] = ALOMY: blackgrass (Alopecurus myosuroides), 14 days after application, read-out: Visual Growth Reduction (%) 14 Days After Application, ALOMY
[2] = AMARE: redroot pigweed (Amaranthus retroflexus), 14 days after application, read-out: Visual Growth Reduction (%) 14 Days After Application, AMARE
[3] = AVEFA: wild oat (Avena fatua), 14 days after application, read-out: Visual Growth Reduction (%) 14 Days After Application, AVEFA
[4] = CHEAL: lambsquarters (Chenopodium album), 14 days after application, read-out: Visual Growth Reduction (%) 14 Days After Application, CHEAL
[5] = CIRAR: canada thistle (Cirsium arvense), 14 days after application, read-out: Visual Growth Reduction (%) 14 Days After Application, CIRAR
[6] = CYPES: yellow nutsedge (Cyperus esculentus), 14 days after application, read-out: Visual Growth Reduction (%) 14 Days After Application, CYPES
[7] = DIGSA: crabgrass (Digitaria sanguinalis), 14 days after application, read-out: Visual Growth Reduction (%) 14 Days After Application, DIGSA
[8] = ECHCG: barnyardgrass (Echinochloa crus-galli), 14 days after application, read-out: Visual Growth Reduction (%) 14 Days After Application, ECHCG
[9] = IPOHE: ivy-leaf morning glory (Ipomoea hederacea), 14 days after application, read-out: Visual Growth Reduction (%) 14 Days After Application, IPOHE
[10] = KCHSC: kochia (Bassia scoparia), 14 days after application, read-out: Visual Growth Reduction (%) 14 Days After Application, KCHSC
[11] = ORYSA: rice (Oryza sativa), 14 days after application, read-out: Visual Growth Reduction (%) 14 Days After Application, ORYSA
[12] = SETFA: giant foxtail (Setaria faberi), 14 days after application, read-out: Visual Growth Reduction (%) 14 Days After Application, SETFA
[13] = SORVU: grain sorghum (Sorghum vulgare), 14 days after application, read-out: Visual Growth Reduction (%) 14 Days After Application, SORVU
[14] = STEME: common chickweed (Stellaria media), 14 days after application, read-out: Visual Growth Reduction (%) 14 Days After Application, STEME
[15] = TRZAS: wheat, spring (Triticum aestivum), 14 days after application, read-out: Visual Growth Reduction (%) 14 Days After Application, TRZAS
[16] = blackgrass (Alopecurus myosuroides), 14 Days After Application, read-out: Visual Growth Reduction (%) ALOMY
[17] = canada thistle (Cirsium arvense), 14 Days After Application, read-out: Visual Growth Reduction (%) CIRAR
[18] = crabgrass (Digitaria sanguinalis), 14 Days After Application, read-out: Visual Growth Reduction (%) DIGSA
[19] = lambsquarters (Chenopodium album), 14 Days After Application, read-out: Visual Growth Reduction (%) CHEAL
[20] = redroot pigweed (Amaranthus retroflexus), 14 Days After Application, read-out: Visual Growth Reduction (%) AMARE
[21] = wild oat (Avena fatua), 14 Days After Application, read-out: Visual Growth Reduction (%) AVEFA
[22] = yellow nutsedge (Cyperus esculentus), 14 Days After Application, read-out: Visual Growth Reduction (%) CYPES

| SMILES | pest or weed control at 140 g/ha [1] | pest or weed control at 140 g/ha [2] | pest or weed control at 140 g/ha [3] | pest or weed control at 140 g/ha [4] | pest or weed control at 140 g/ha [5] | pest or weed control at 140 g/ha [6] | pest or weed control at 140 g/ha [7] | pest or weed control at 140 g/ha [8] | pest or weed control at 140 g/ha [9] | pest or weed control at 140 g/ha [10] | pest or weed control at 140 g/ha [11] | pest or weed control at 140 g/ha [12] | pest or weed control at 140 g/ha [13] | pest or weed control at 140 g/ha [14] | pest or weed control at 140 g/ha [15] | also measured |
| --- | --- | --- | --- | --- | --- | --- | --- | --- | --- | --- | --- | --- | --- | --- | --- | --- |
| O=C(O)c1nc(-c2ccc(C(F)(F)F)cc2F)c(F)cc1Cl [F160, 3-Chloro-5-fluoro-6-(2-fluoro-4-(trifluoromethyl)phenyl) picolinic acid] | 75 to 84% | 95 to 100% | 85 to 94% | 95 to 100% | 85 to 94% | 60 to 74% | 85 to 94% | 95 to 100% | 95 to 100% | 95 to 100% | 60 to 74% | 85 to 94% | 95 to 100% | 30 to 44% | 85 to 94% | – |
| COC(=O)c1nc(-c2ccc(C(F)(F)F)cc2F)ccc1Cl [F12, Methyl 3-chloro-6-(2-fluoro-4-(trifluoromethyl)phenyl)picolinate] | 0 to 29% | 85 to 94% | 0 to 29% | 95 to 100% | 60 to 74% | 60 to 74% | 75 to 84% | – | – | – | – | – | – | – | – | pest or weed control at 140 g/ha (barnyardgrass (Echinochloa crus-galli), 14 Days After Application, read-out: Visual Growth Reduction (%) ECHCG): 0 to 29%; pest or weed control at 140 g/ha (common chickweed (Stellaria media), 14 Days After Application, read-out: Visual Growth Reduction (%) STEME): 0 to 29%; pest or weed control at 140 g/ha (giant foxtail (Setaria faberi), 14 Days After Application, read-out: Visual Growth Reduction (%) SETFA): 0 to 29%; pest or weed control at 140 g/ha (ivy-leaf morning glory (Ipomoea hederacea), 14 Days After Application, read-out: Visual Growth Reduction (%) IPOHE): 95 to 100%; pest or weed control at 140 g/ha (johnsongrass (Sorghum vulgare), 14 Days After Application, read-out: Visual Growth Reduction (%) SORVU): 75 to 84%; pest or weed control at 140 g/ha (kochia (Bassia scoparia), 14 Days After Application, read-out: Visual Growth Reduction (%) KCHSC): 0 to 29%; pest or weed control at 140 g/ha (rice (Oryza sativa), 14 Days After Application, read-out: Visual Growth Reduction (%) ORYSA): 0 to 29%; pest or weed control at 140 g/ha (wheat, spring (Triticum aestivum), 14 Days After Application, read-out: Visual Growth Reduction (%) TRZAS): 0 to 29% |
| COC(=O)c1nc(-c2c(C)cc(C(F)(F)F)cc2Cl)ccc1Cl [F250, Methyl 3-chloro-6-(2-chloro-6-methyl-4-(trifluoromethyl)phenyl) picolinate] | – | – | – | – | – | – | – | 0 to 29% | 95 to 100% | 0 to 29% | 0 to 29% | 45 to 59% | 85 to 94% | 0 to 29% | 45 to 59% | pest or weed control at 140 g/ha [16]: 0 to 29%; pest or weed control at 140 g/ha [17]: 60 to 74%; pest or weed control at 140 g/ha [18]: 85 to 94%; pest or weed control at 140 g/ha [19]: 75 to 84%; pest or weed control at 140 g/ha [20]: 0 to 29%; pest or weed control at 140 g/ha [21]: 0 to 29%; pest or weed control at 140 g/ha [22]: 0 to 29% |
| COC(=O)c1nc(-c2ccc(C(F)(F)F)cc2Cl)c(O)cc1Cl [F34, methyl 3-chloro-6-(2-chloro-4-(trifluoromethyl)phenyl)-5-hydroxypicolinate] | 0 to 29% | 0 to 29% | 0 to 29% | 45 to 59% | 0 to 29% | 0 to 29% | 0 to 29% | 0 to 29% | 0 to 29% | 0 to 29% | 0 to 29% | 0 to 29% | 0 to 29% | 0 to 29% | 0 to 29% | – |
| O=C(O)c1nc(-c2ccnc(Cl)c2Cl)ccc1Cl [F133, 2′,3′,5-Trichloro-[2,4′-bipyridine]-6-carboxylic acid] | 0 to 29% | 0 to 29% | 0 to 29% | 75 to 84% | 0 to 29% | 0 to 29% | 45 to 59% | 0 to 29% | 45 to 59% | 0 to 29% | 0 to 29% | 0 to 29% | 60 to 74% | 0 to 29% | 0 to 29% | – |
| COC(=O)c1nc(-c2ccc(C(F)(F)F)cc2C(N)=O)ccc1Cl [F146, Methyl 6-(2-carbamoyl-4-(trifluoromethyl)phenyl)-3-chloropicolinate] | 0 to 29% | 0 to 29% | 0 to 29% | 0 to 29% | 0 to 29% | 0 to 29% | 0 to 29% | 0 to 29% | 30 to 44% | 0 to 29% | 0 to 29% | 0 to 29% | 0 to 29% | 0 to 29% | 0 to 29% | – |
| COc1cc(C(F)(F)F)ccc1-c1nc(C(=O)OCc2ccccc2)c(Cl)cc1F [F363, Benzyl 3-chloro-5-fluoro-6-(2-methoxy-4-(trifluoromethyl)phenyl)picolinate] | – | – | – | – | – | – | – | 95 to 100% | 95 to 100% | 75 to 84% | 30 to 44% | 85 to 94% | 95 to 100% | 30 to 44% | 75 to 84% | pest or weed control at 140 g/ha [16]: 0 to 29%; pest or weed control at 140 g/ha [17]: 85 to 94%; pest or weed control at 140 g/ha [18]: 0 to 29%; pest or weed control at 140 g/ha [19]: 95 to 100%; pest or weed control at 140 g/ha [20]: 95 to 100%; pest or weed control at 140 g/ha [21]: 85 to 94%; pest or weed control at 140 g/ha [22]: 0 to 29% |

From patent publication US20230017045A1, “PYRIDINE AND PYRIMIDINE CARBOXYLATE HERBICIDES AND METHODS OF USE THEREOF” (Dow AgroSciences LLC, priority 2017, published 2023)
